How the values were obtained:
Type in all cases: cell-based
Escherichia coli = experiment: in vitro antibacterial activity; settings: commonly employed in vitro techniques
Description: (§1) It is particularly inimical to Proteus mirabilis and Escherichia coli at levels of 1.4 to 5.5×10^-5 molar in commonly employed in vitro techniques for determining antibacterial activity.

Proteus mirabilis = experiment: in vitro antibacterial activity; settings: commonly employed in vitro techniques
Description: as §1

[1] = molecular target: T1, urease of intact Proteus mirabilis cells (Proteus mirabilis, UniProt P17086); experiment: anti-urease potency using intact Proteus mirabilis cells as the source of urease; settings: 40 minutes preincubation, pH 8.0, ammonia formed in five minutes after addition of urea; read-out: concentration evincing a 50% inhibition of the urease of intact Proteus mirabilis cells
T1 construct: using intact Proteus mirabilis cells as the source of urease; endogenous in cells
Description: The anti-urease potency of the compound of this invention was determined using intact Proteus mirabilis cells as the source of urease. Compounds were preincubated with Proteus mirabilis cells suspended in a saline solution (0.1 molar) buffered with 0.1 molar tris(hydroxymethyl)aminomethane (pH 8.0). After 40 minutes preincubation, the remaining urease activity was determined by collecting the ammonia formed in five minutes after the addition of the substrate, urea. Ammonia assays were carried out according to the procedure of Seligson and Seligson [J. Lab. Clin. Med. 38, 324-330 (1951)]. Percent inhibition was calculated by comparing the amount of ammonia generated by cells preincubated with 3-[[(4-aminophenyl)sulfonyl]amino]-N-[diaminophosphinyl]-benzamide with the controls, in which preincubation was carried out in the absence of compound.

T1 sequence (P17086 whole entry): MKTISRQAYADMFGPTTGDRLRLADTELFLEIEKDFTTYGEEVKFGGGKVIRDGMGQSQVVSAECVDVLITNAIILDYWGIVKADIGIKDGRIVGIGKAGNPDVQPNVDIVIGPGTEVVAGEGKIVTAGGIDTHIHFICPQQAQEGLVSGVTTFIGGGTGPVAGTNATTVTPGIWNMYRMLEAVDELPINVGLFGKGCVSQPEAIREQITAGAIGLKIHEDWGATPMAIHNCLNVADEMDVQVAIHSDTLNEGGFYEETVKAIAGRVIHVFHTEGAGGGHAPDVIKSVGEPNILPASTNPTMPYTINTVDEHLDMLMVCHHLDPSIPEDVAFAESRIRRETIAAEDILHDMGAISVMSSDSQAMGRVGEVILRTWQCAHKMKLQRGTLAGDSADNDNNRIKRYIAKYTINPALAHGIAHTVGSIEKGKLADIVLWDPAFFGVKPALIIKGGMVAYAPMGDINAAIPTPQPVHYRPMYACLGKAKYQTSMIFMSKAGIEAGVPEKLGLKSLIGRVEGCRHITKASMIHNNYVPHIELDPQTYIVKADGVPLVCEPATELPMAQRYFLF

## Nc1ccc(S(=O)(=O)Nc2cccc(C(=O)NP(N)(N)=O)c2)cc1 [3-[[(4-aminophenyl)sulfonyl]amino]-N-[diaminophosphinyl]-benzamide]
Escherichia coli
  antibacterial activity level (inimical concentration): 1.4 to 5.5×10^-5 molar
Proteus mirabilis
  antibacterial activity level (inimical concentration): 1.4 to 5.5×10^-5 molar
[1]
  IC50: 2000 nM

Source: US4221730A, “3-[[(4-Aminophenyl)sulfonyl]amino]-N-[diaminophosphinyl]-benzamide” (Morton-Norwich Products, Inc., priority 1979, dated 1980)
